Patent US20250066826A1, “ARTIFICIAL SYNTHESIS METHOD FOR MALONYL-COENZYME A (COA) AND USE THEREOF” (SHANGHAI JIAO TONG UNIVERSITY, priority 2023, published 2025)
Like-named read-outs stand apart in the source and are kept apart here.

Columns and labels:
[1] = system: E. coli MG1655 (DE3), pCDF-ACC (strain N); assay type: cell-based; conditions: ACC overexpressed strain; MOPS medium with 200 mM succinic acid, 10 mM triacetic acid lactone, 300 mM NaCl or 480 mM sucrose
Method: (§1) Seed culture: Monoclones of the MG1655 (DE3), pCDF-bauA-mcrC (strain L), monoclones of the MG1655 (DE3), pCDF-duet (strain M) and monoclones of the MG1655 (DE3), pCDF-ACC (strain N) were selected respectively to be inoculated into a 15 mL test tube containing 5 mL of an MOPS medium, the medium containing spectinomycin (a final concentration of 50 μg/mL). Culture was carried out at 220 r and 37° C. until the OD550 is around 1.5 to 1.8 to be used as a seed solution.
(§2) Medium used for tolerance testing: IPTG (a final concentration of 0.1 mM) and spectinomycin (a final concentration of 50 μg/mL) were added into an MOPS medium (containing […] glucose); then, inhibitors were added, and the selected inhibitors and final concentrations thereof were formic acid (100 mM), acetic acid (50 mM), caproic acid (10 mM), lactic acid (500 mM), succinic acid (200 mM), glucose (100 μg/L), sucrose (480 mM), octanoic acid (10 mM), citric acid (200 mM), vanillic acid (3 μg/L), and triacetic acid lactone (TAL, 1.25 μg/L).
(§3) The seed solution was inoculated at a ratio of initial OD550=0.1 into a medium for tolerance test. After inoculation was completed, shaking for even mixing was carried out. 200 μL of the same was pipetted to a 96-well plate. By using a continuous kinetic assay method, OD550 was determined every 10 minutes with a microplate reader (Biotek), to determine the growth curve of the strain. The specific growth rate […] can be obtained by calculation of the exponential growth phase OD550T, cultivation time T, and initial OD550O.

[2] = system: E. coli MG1655 (DE3), pCDF-bauA-mcrC (strain L); assay type: cell-based; conditions: for biomass (OD550): NCM pathway overexpressed strain, MOPS medium with 200 mM succinic acid, 10 mM triacetic acid lactone, 300 mM NaCl or 480 mM sucrose; for increase of biomass of NCM strain compared to the ACC overexpressed strain / increase of biomass of NCM strain compared to the reference strain: same stressor concentrations as OD550 values
Method: as §1, §2, §3

[3] = system: E. coli MG1655 (DE3), pCDF-duet (strain M); assay: Tolerance test, growth (OD550) of reference strain; assay type: cell-based; conditions: MOPS medium with 200 mM succinic acid, 10 mM triacetic acid lactone, 300 mM NaCl or 480 mM sucrose
Method: as §1, §2, §3

artificial NCM pathway = assay: Effect of inhibitors of natural synthesis pathways on the NCM in-vitro reaction system; assay type: biochemical
Method: It can be seen that the BauA has the best effect (FIG. 4A).
Natural PDH-ACC pathways are strictly regulated by many factors, such as high levels of intracellular ATP severely reducing the activity of PDH. When ADP/ATP=1, the activity of PDH is only 10% of that when ADP/ATP=20 (Hansford R G et al., 1976). Acetyl-CoA is also an inhibitor of PDH. When acetyl-CoA reaches 2 mM, the activity of PDH decreases by 70%. Long-chain fatty acyl-CoA, such as palmitoyl-CoA, is an inhibitor of ACC. […] palmitoyl-CoA can cause an 80% decrease in ACC activity. In the above NCM in-vitro reaction system, ATP and ADP (ATP+ADP=3.75 mM, ADP/ATP was +00, 10, 1, and 0.1, respectively) (FIG. 6A), acetyl-CoA (0, 0.5, 1, and 2 mM) (FIG. 6B), and palmitoyl-CoA ([…]) (FIG. 6C) were added, respectively.

PDH = conditions: cited from earlier work

Structure (SMILES) | biomass (OD550) [1] | biomass (OD550) [2] | increase of biomass of NCM strain compared to the ACC overexpressed strain [2] [%] | increase of biomass of NCM strain compared to the reference strain [2] [%] | biomass (OD550) [3] | further results
[Cl-].[Na+] [NaCl] | 0.24 | 0.76 | 214 | 29 | 0.59 | 
CCCCCCCCCCCCCCCC(=O)SCCNC(=O)CCNC(=O)[C@H](O)C(C)(C)COP(=O)(O)OP(=O)(O)OC[C@H]1O[C@@H](n2cnc3c(N)ncnc32)[C@H](O)[C@@H]1OP(=O)(O)O [palmitoyl-CoA] |  |  |  |  |  | inhibitory effect on the artificial NCM pathway (artificial NCM pathway; palmitoyl-CoA 0, 0.24, 0.48, 0.96, 2.4 and 24 M): no inhibitory effect
OC[C@H]1O[C@@](CO)(O[C@H]2O[C@H](CO)[C@@H](O)[C@H](O)[C@H]2O)[C@@H](O)[C@@H]1O [sucrose] | 0.23 | 0.96 | 320 | 26 | 0.77 | 
Nc1ncnc2c1ncn2[C@@H]1O[C@H](COP(=O)(O)OP(=O)(O)OP(=O)(O)O)[C@@H](O)[C@H]1O [ATP] |  |  |  |  |  | decrease in PDH activity (PDH; ADP/ATP equal to 1): 90%; activity of PDH relative to that when ADP/ATP=20 (PDH; ADP/ATP=1): 10%; inhibitory effect on the artificial NCM pathway (artificial NCM pathway; ATP+ADP=3.75 mM, ADP/ATP +00, 10, 1 and 0.1): no inhibitory effect
O=C(O)CCC(=O)O [succinic acid] | 0.20 | 0.60 |  | 100 | 0.30 | 
CC(=O)SCCNC(=O)CCNC(=O)[C@H](O)C(C)(C)COP(=O)(O)OP(=O)(O)OC[C@H]1O[C@@H](n2cnc3c(N)ncnc32)[C@H](O)[C@@H]1OP(=O)(O)O [acetyl-CoA] |  |  |  |  |  | decrease in PDH activity (PDH; 2 mM acetyl-CoA): 70%; inhibitory effect on the artificial NCM pathway (artificial NCM pathway; acetyl-CoA 0, 0.5, 1 and 2 mM): no inhibitory effect
Cc1cc(O)cc(=O)o1 [triacetic acid lactone] | 0.29 | 0.81 | 180 | 30 | 0.62 | 
